Source: PMC9050506 (RSC Advances, 2020)

B1: CVN2L0-V4: CVN2L0 variant with Cys–Cys mutagenesis to Trp–Met and Glu–Arg, two disulfide bonds (protein)
chain: LGKFSQTCYNSAIQGSVLTSTCERTNGGYNTSSIDLNSVIENVDGSLKWQPSNFIETWRNTQLAGSSELAAEMKTRAQQFVSTKINLDDHIANIDGTLKYELGKFSQTCYNSAIQGSVLTSTCERTNGGYNTSSIDLNSVIENVDGSLKWQPSNFIETERNTQLAGSSELAAERKTRAQQFVSTKINLDDHIANIDGTLKYE
modifications: left off: His6, N-terminal, state not stated

Tested on: Recombinant influenza A virus hemagglutinin H3 protein (HA)
Settings: SPR sensorgrams Fig. 3A-D

Molecule | Rmax, binding to HA
CVN2L0-V2: CVN2L0 variant with one C58E–C73R substitution, three disulfide bonds | 723 RU
B1 | 34 RU
